Consider one compound from patent US5691381A, “Hydroxamic and carbocyclic acids as metalloprotease inhibitors” (The DuPont Merck Pharmaceutical Company, priority 1996, dated 1997).

This test deals with cartilage degradation (proteoglycan content in the synovial fluid). The experiment in a line: Acute Cartilage Degradation Rat Model. The format is in vivo. To be noted: rats, after compound administration. An excerpt:
An in vivo model of acute cartilage degradation in rats has been characterized as a method to determine the proteoglycan content in the synovial fluid after the induction of cartilage degradation.

For `COc1ccc2c(c1)c(CC(=O)O)c(C)n2C(=O)c1ccc(Cl)cc1` [Indomethacin], the “inhibition of cartilage degradation, as measured by increased proteoglycan content in the synovial fluid” value is “inactive”.
